Consider 4 compounds from patent US5314904A (priority 1991, dated 1994).

Converted amounts (≈) assume the structure as drawn. Where two headings read alike, the source gives them in different places.

For one data set, the system named is Mobiluncus spp. The data set can be described thus: MIC in vitro, Mobiluncus spp. (NCCLS M11-T2, agar Wilken-Chalgren). Format: cell-based. The following applies: for MIC: read-out: MIC Range of Concentration Value. An excerpt:
(§1) Forty strains of Bacteroides bivius-disiens, 23 strains of Gardnerella vaginalis, 31 strains of the species Lactobacillus and 13 strains of Mobiluncus, 35 strains (from Iowa) and 25 strains (from Manitoba) of Neisseria gonorrhoeae, 25 strains of Haemophilus ducreyi and 6 strains of Chlamydia trachomatis have been analyzed.
(§2) Forty strains of Bacteroides bivius-disiens, 23 strains of Gardnerella vaginalis, 31 strains of Lactobacillus spp., 13 strains of Mobiluncus spp., 6 strains of Chlamydia trachomatis, 60 strains of Neisseria gonorrhoeae and 25 strains of Haemophilus ducreyi were obtained by culture collections supplied from: […]

Data set [1] deals with Bacteroides bivius-disiens. Briefly: MIC in vitro, Bacteroides bivius-disiens (NCCLS M11-T2, agar Wilken-Chalgren). Format: cell-based. The settings on record: 40 strains; for MIC: read-out: MIC Range of Concentration Value.
Text: as §1, §2

The test system of the next data set is Gardnerella vaginalis. Briefly: MIC in vitro, Gardnerella vaginalis (NCCLS M11-T2, agar Wilken-Chalgren). The settings on record: for MIC: read-out: MIC Range of Concentration Value. The format is cell-based.
Text: as §1, §2

A further data set has as its system Lactobacillus spp. Briefly: MIC in vitro, Lactobacillus spp. (NCCLS M11-T2, agar Wilken-Chalgren). Format: cell-based. The settings on record: for MIC: read-out: MIC Range of Concentration Value.
Text: as §1, §2

The conditions of data set [2]: cited from earlier work.
The subject of a further data set is Chlamydia trachomatis. The data set can be described thus: MIC in vitro, Chlamydia trachomatis (Hoban et al. method). Format: cell-based. From the text: (§3) Forty strains of Bacteroides bivius-disiens, 23 strains of Gardnerella vaginalis, 31 strains of the species Lactobacillus and 13 strains of Mobiluncus, 35 strains (from Iowa) and 25 strains (from Manitoba) of Neisseria gonorrhoeae, 25 strains of Haemophilus ducreyi and 6 strains of Chlamydia trachomatis have been analyzed. The determination of the minimum inhibitory concentration on the strains of the four types of anaerobic bacteria has been carried out according to NCCLS M11-T2 method (National Committee for Clinical Laboratory Standards. Methods for antimicrobial testing of anaerobic bacteria--second edition: Tentative Standard. NCCLS M11-T2, Villanova, Pa. NCCLS; 1989) on agar Wilken-Chalgren (Difco Laboratories, Detroit, Mich.) to which blood has been added.
(§4) Forty strains of Bacteroides bivius-disiens, 23 strains of Gardnerella vaginalis, 31 strains of Lactobacillus spp., 13 strains of Mobiluncus spp., 6 strains of Chlamydia trachomatis, 60 strains of Neisseria gonorrhoeae and 25 strains of Haemophilus ducreyi were obtained by culture collections supplied from:
(§5) The determination of the MIC with respect to Neisseria gonorrhoeae has been carried out according to the NCCLS M7-A2 method, while the determination of th MIC with respect to Chlamydia trachomatis, Mycoplasma hominis, Ureaplasma urealyticum and Haemophilus ducrey has been carried out according to Hoban D. et al. "In vitro activity of lomefloxacin against Chlamydia trachomatis, Neisseria gonorrhoeae, Haemophilus ducreyi, Mycoplasma hominis and Ureaplasma urealyticum." Diagn. Microbiol. Infect. Dis., 12, 83S-86S (1989).

The next data set relates to Haemophilus ducreyi. Briefly: MIC in vitro, Haemophilus ducreyi (Hoban et al. method). The format is cell-based.
Text: as §3
The strains of Haemophilus ducreyi have been grown on chocolate agar for 24 hours at 35° C. in an atmosphere of carbon dioxide. After each material has been isolated, it is applied on chocolate agar containing appropriate dilution of antibiotic (Hoban D. et al. "In vitro activity of lomefloxacin against Chlamydia trachomatis, Neisseria gonorrhoeae, Haemophilus ducreyi, Mycoplasma hominis and Ureaplasma urealyticum". Diagn. Microbiol. Infect. Dis. 12, 83S-86S, 1989). The plates are incubated in an atmosphere containing carbon dioxide with increasing moisture at 35° C. for 48 hours.
as §2

The next data set deals with Mycoplasma hominis. The data set can be described thus: MIC in vitro, Mycoplasma hominis (Hoban et al. method). Format: cell-based. The following applies: Metamycoplasma hominis.
Text: as §5

A further data set has as its system Ureaplasma urealyticum. The data set can be described thus: MIC in vitro, Ureaplasma urealyticum (Hoban et al. method). The format is cell-based.
Text: as §5

The test system of another data set is Neisseria gonorrhoeae. Briefly: MIC in vitro, Neisseria gonorrhoeae (NCCLS M7-A2). The format is cell-based.
Text: as §1, §4, §5

Usually MIC50 stands for an inhibitory concentration at the 50% level, which refers to growth in some studies and to a panel of isolates in others. Lower therefore signals greater potency. On to `CC1(C)S[C@@H]2[C@H](NC(=O)[C@H](N)c3ccccc3)C(=O)N2[C@H]1C(=O)O` [Ampicillin], for which the MIC50 with Mobiluncus spp. (13 strains) was ≤ 0.5 µg/mL; in data set [1], 4 µg/mL (≈ 11.4 µM); against Gardnerella vaginalis (23 strains) it was ≤ 0.5 µg/mL; with Lactobacillus spp. (31 strains), ≤ 0.5 µg/mL. The MIC90 was 4 µg/mL (≈ 11.4 µM) with Mobiluncus spp. (13 strains, read-out: MIC 90%); 64 µg/mL (≈ 183 µM) in data set [1]; < 0.5 µg/mL in the data set on Gardnerella vaginalis; 1 µg/mL (≈ 2.86 µM) with Lactobacillus spp. (31 strains, read-out: MIC 90%). The MIC is 0.5 to 4 µg/mL (≈ 1.43 to 11.4 µM) in the data set on Mobiluncus spp. (13 strains), 0.5 to 2 µg/mL (≈ 1.43 to 5.72 µM) in the data set on Gardnerella vaginalis (23 strains) and 0.5 to 2 µg/mL (≈ 1.43 to 5.72 µM) in the data set with Lactobacillus spp. (31 strains).

For the compound `CCC[C@@H]1C[C@@H](C(=O)N[C@@H]([C@H]2O[C@H](SC)[C@H](O)[C@@H](O)[C@H]2O)[C@H](C)Cl)N(C)C1` [Clindamycin], the MIC50 was ≤ 0.06 µg/mL in the data set on Mobiluncus spp. (13 strains), ≤ 0.06 µg/mL in data set [1], ≤ 0.06 µg/mL in the data set on Gardnerella vaginalis (23 strains) and 0.25 µg/mL (≈ 0.588 µM) in the data set with Lactobacillus spp. (31 strains). Further, the MIC90 is < 0.06 µg/mL with Mobiluncus spp. (13 strains, read-out: MIC 90%); < 0.06 µg/mL in data set [1]; < 0.06 µg/mL with Gardnerella vaginalis (23 strains, read-out: MIC 90%); 4 µg/mL (≈ 9.41 µM) in the data set on Lactobacillus spp. (31 strains, read-out: MIC 90%). Also, the MIC with Mobiluncus spp. (13 strains) was ≤ 0.06 µg/mL; in data set [1] it was ≤ 0.06 µg/mL; in the data set with Gardnerella vaginalis (23 strains), 0.06 to 0.25 µg/mL (≈ 0.141 to 0.588 µM); in the data set on Lactobacillus spp. (31 strains) it was 0.06 to 4 µg/mL (≈ 0.141 to 9.41 µM). In addition, the side effects result in data set [2] (compared with drugs currently used) is “serious side effects, particularly on the gastrointestinal tract with serious forms of diarrhea and pseudo-membranous colitis that can even lead to the death of the patient”.

With `Cc1ncc([N+](=O)[O-])n1CCO` [Metronidazole], the MIC90 against Mobiluncus spp. is > 16 µg/mL; in data set [1] it was 4 µg/mL (≈ 23.4 µM); in the data set on Gardnerella vaginalis, > 16 µg/mL; in the data set on Lactobacillus spp., > 16 µg/mL. Further, the MIC50 against Mobiluncus spp. (13 strains) was > 16 µg/mL; in [1] it was 2 µg/mL (≈ 11.7 µM); against Gardnerella vaginalis (23 strains), > 16 µg/mL; in the data set with Lactobacillus spp. (31 strains) it was > 16 µg/mL. For the same compound, the MIC in data set [1] was 0.5 to 8 µg/mL (≈ 2.92 to 46.7 µM); with Lactobacillus spp. (31 strains), > 16 µg/mL. Further, the side effects entry in data set [2] (in vivo) was “serious side effects particularly on the blood and on the central nervous system”.

Turning to `CO[C@H]1/C=C/O[C@@]2(C)Oc3c(C)c(O)c4c(O)c(c5c(nc6cc(C)ccn65)c4c3C2=O)NC(=O)/C(C)=C\C=C\[C@H](C)[C@H](O)[C@@H](C)[C@@H](O)[C@@H](C)[C@H](OC(C)=O)[C@@H]1C` [Rifaximin, 4-desoxy-4'-methyl-pyrido [1'2':1.2] imidazo [5.4-c] rifamycin SV], the susceptibility entry in the data set with Chlamydia trachomatis is reported as “has shown susceptibility to rifaximin”. Moreover, the MIC90 is < 20 µg/mL in the data set on Chlamydia trachomatis (Chlamydia trachomatis, 6 strains); 0.5 µg/mL (≈ 0.636 µM) in the data set on Haemophilus ducreyi; ≥ 64 µg/mL in the data set on Mycoplasma hominis (20 strains); < 0.03 µg/mL in the data set on Mobiluncus spp. (13 strains, read-out: MIC 90%); 0.25 µg/mL (≈ 0.318 µM) in data set [1]; > 64 µg/mL against Ureaplasma urealyticum (25 strains). Besides, the MIC90 with Gardnerella vaginalis (23 strains, read-out: MIC 90%) is 1 µg/mL (≈ 1.27 µM); against Neisseria gonorrhoeae, 16 µg/mL (≈ 20.4 µM); against Lactobacillus spp. it was 0.5 µg/mL (≈ 0.636 µM). The MIC in the data set with Chlamydia trachomatis (Chlamydia trachomatis, 6 strains, read-out: MIC Range of Concentration Value) is 10 to 20 µg/mL (≈ 12.7 to 25.4 µM); in the data set with Chlamydia trachomatis (Chlamydia trachomatis, read-out: M.I.C.), > 20 µg/mL; in the data set with Haemophilus ducreyi (25 strains, read-out: MIC Range of Concentration Value), 0.03 to 0.5 µg/mL (≈ 0.0382 to 0.636 µM); with Mycoplasma hominis (20 strains, read-out: MIC Range of Concentration Value), ≥ 64 µg/mL; with Mycoplasma hominis (read-out: M.I.C.), ≥ 64 µg/mL; with Mobiluncus spp. (13 strains), ≤ 0.03 µg/mL. Also, the MIC in data set [1] is 0.03 to 0.5 µg/mL (≈ 0.0382 to 0.636 µM); in the data set with Ureaplasma urealyticum, ≥ 64 µg/mL; with Gardnerella vaginalis (23 strains) it was 0.25 to 1 µg/mL (≈ 0.318 to 1.27 µM); in the data set on Lactobacillus spp. (31 strains) it was 0.3 to 1 µg/mL (≈ 0.382 to 1.27 µM). For the same compound, the MIC50 in the data set on Haemophilus ducreyi (25 strains) is 0.25 µg/mL (≈ 0.318 µM); with Mycoplasma hominis (20 strains), 64 µg/mL (≈ 81.4 µM); in the data set with Mobiluncus spp. (13 strains) it was ≤ 0.03 µg/mL; in data set [1], 0.12 µg/mL (≈ 0.153 µM); against Ureaplasma urealyticum (25 strains) it was 64 µg/mL (≈ 81.4 µM); with Gardnerella vaginalis (23 strains), 0.5 µg/mL (≈ 0.636 µM). Further, the values for the MIC50 in the data set with Neisseria gonorrhoeae (60 strains) and in the data set on Lactobacillus spp. (31 strains) were 0.25 µg/mL (≈ 0.318 µM) and 0.12 µg/mL (≈ 0.153 µM), respectively.
